For assay [1] the following is noted: single parenteral dose, followed by gentamicin three days later; the patient died; cited from earlier work.
For assay [2] the following is noted: intraperitoneal infection, cited from earlier work.
The test system of assay [3] is methicillin-resistant VISA strain of S. aureus. The assay can be described thus: Experimental endocarditis in rabbits, methicillin-resistant VISA strain. The format is in vivo. The protocol: Aortic valve endocarditis was established in New Zealand white rabbits weighing approximately 3 kg. Rabbits were anesthetized and the right carotid artery surgically exposed and cannulated with a polyethylene catheter which was advanced into the left ventricle of the heart. After at least 24 h, the rabbits were infected intravenously with 10^6-10^7 cells of a methicillin-resistant S. aureus strain (MRSA 27619). Twenty-four hours later, the animals were randomly assigned to different treatment groups; untreated control (9 rabbits); positive control, vancomycin 30 mg/kg twice daily (15); lysostaphin 5 mg/kg three times daily (11); lysostaphin 5 mg/kg once daily (10); lysostaphin 5 mg/kg once daily+vancomycin 30 mg/kg twice daily (11). Any rabbits whose infection was not confirmed by pre-treatment blood culture were eliminated.
All treatments were intravenous and were carried out for three days. The state of health of the rabbits was assessed at intervals. The rabbits were sacrificed 18 h after the last treatment. Aortic vegetations were removed and weighed and processed to determine the number of viable bacteria, expressed as log,10CFU/gram. The limit of detection is 10^2 CFU/gram (log10CFU/gram=2.0). The mean titers of bacteria per gram were compared by one-way analysis of variance. The Student-Newman-Keuls test was used to adjust for multiple comparisons.
Strains that are both methicillin-resistant and resistant to vancomycin are a newly emerging problem. A variant strain of this type was selected after cycles of growth in glycopeptide-containing medium. The vancomycin MIC for the resulting strain was 8 μg/ml, as reported also for naturally occurring VISA strains isolated from patients in the U.S. and Japan. (Centers for Disease Control and Prevention, Morbidity and Mortality Weekly Report 1997; 46:813-815). Staphylococcal isolates are considered to be susceptible to vancomycin if the MIC is less than or equal to 4 μg/ml and to be completely resistant if the MIC is greater than or equal to 32 μg/ml (National Committee for Clinical Laboratory Standards, 1993. Approved Standard M2-A5. Performance standards for antimicrobial disk susceptibility tests—Fifth edition. National Committee for Clinical Laboratory Standards, Villanova, Pa.)

Assay [4] relates to Giorgio strain of S. aureus. Particulars: mice, cited from earlier work.
Assay [5] has as its system S. aureus Smith. Nature of the assay: Acute S. aureus infection model in mice (survival). The format is in vivo. On the procedure: The efficacy of lysostaphin was compared to that of vancomycin in an acute infection model in mice. S. aureus Smith was cultured overnight, with moderate agitation, in Veal Infusion broth (Difco) and diluted in broth containing 5% hog gastric mucin (Difco). Male Swiss-Webster mice (Taconic Farms, Germantown, N.Y.) weighing approximately 20 grams were infected intraperitoneally with 10^5-10^6 viable cells, approximately tenfold the inoculum that reproducibly killed all untreated animals within 48 h. There were six mice in each treatment group. Lysostaphin was administered intravenously (in 0.1 ml 5% dextrose for injection) or subcutaneously (in 0.2 ml), within 10 min of infection. Vancomycin was administered subcutaneously.

Where [6] appears, read: lysostaphin intravenously vs vancomycin.

This is an account of results in US20020006406A1, “METHOD FOR THE TREATMENT OF STAPHYLOCOCCAL DISEASE” (priority 1997, published 2002).

Where two headings read alike, the source gives them in different places. Marks after values point to notes of the source that are not given here.

On to “lysostaphin: recombinant lysostaphin enzyme from fermentation of B. sphaericus; majority component lacks the two N-terminal amino acids of the published sequence”, for which the “outcome in one very ill human patient” value in assay [1] is “reduction in bacteremia”. Also, the “survival of treated mice” value in assay [2] (single or multiple subcutaneous administrations, total approximately 1 mg/kg) is listed as 50%. For the same substance, the mice protected in assay [2] (total dosage of 6 mg/kg) is given as 100%. Further, the results for the “CFU/g vegetation (expressed as log10 of the mean)” value in assay [3] (5 mg/kg three times daily) and in assay [3] (15 mg/kg twice daily) were 6.29 log10 CFU/g and 4.0** log10 CFU/g, respectively. The sterile/total vegetations was 2/10 in assay [3] (5 mg/kg three times daily) and 0/5 in assay [3] (15 mg/kg twice daily). In addition, the “numbers of bacteria in the kidneys” value in assay [4] (intravenously within 6 hours after infection, dosages of 1.5 mg/kg or higher) is given as “significant reductions”; in assay [4] (treatment withheld for 24 hours or longer, dosages of 125 or 250 mg/kg), “only modest reductions”. In addition, the “% survival” value is reported as 33% in assay [5] (0.08 mg/kg iv within 10 min of infection); 100% in assay [5] (0.16 mg/kg iv within 10 min of infection); 100% in assay [5] (0.31 mg/kg iv within 10 min of infection); 100% in assay [5] (0.63 mg/kg iv within 10 min of infection); 67% in assay [5] (1.25 mg/kg sc); 100% in assay [5] (2.5 mg/kg sc). The “% survival” value in assay [5] (5 mg/kg sc) was found to be 100%; in assay [5] (10 mg/kg sc), 100%; in assay [5] (20 mg/kg sc), 100%; in assay [5] (Table 4 experiment, dose 0.04 mg/kg) it was 0%; in assay [5] (Table 4 experiment, dose 0.08 mg/kg), 17%; in assay [5] (Table 4 experiment, dose 0.16 mg/kg), 83%. Moreover, in assay [5] (setting [6]), the “effectiveness relative to vancomycin, on a molar basis” value is listed as “about 200 times”. In addition, the “effectiveness relative to vancomycin, on a weight basis” value in assay [5] (setting [6]) was 16 times.
